Assay results reported in the supplement of paper PMC10307832.

Legend:
Experiment in all cases: relative viability (nuclei count vs DMSO), 5 days (fraction); higher = more cells survive
[1] = tested on: NCI-H3122
How it was run: (§1)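 Relative viability equals treated-well nuclei counts divided by vehicle-well nuclei counts. Counts came from 4× images of lung cancer cell lines grown in 1536-well plates for 5 days after pin-tool dosing on the day after seeding. Dosing used one drug alone or a fixed anchor-drug dose plus five library-drug doses (not always all listed) in √10 steps, and values are medians of duplicate plates.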

[2] = tested on: HCC-78
How it was run: as §1

[3] = tested on: LK-2
How it was run: as §1

[4] = tested on: NCI-H2126
How it was run: as §1

[5] = tested on: SW 900
How it was run: as §1

[6] = tested on: RERF-LC-KJ
How it was run: as §1

[7] = tested on: SW 1573
How it was run: as §1

[8] = tested on: ChaGo-K-1
How it was run: as §1

[9] = tested on: NCI-H1975
How it was run: as §1

[10] = tested on: NCI-H2085
How it was run: as §1

[11] = tested on: NCI-H1666
How it was run: as §1

[12] = tested on: EPLC-272H
How it was run: as §1

[13] = tested on: NCI-H23
How it was run: as §1

[14] = tested on: LOU-NH91
How it was run: as §1

[15] = tested on: NCI-H1563
How it was run: as §1

[16] = tested on: LU99A
How it was run: as §1

[17] = tested on: EMC-BAC-2
How it was run: as §1

[18] = tested on: LCLC-103H
How it was run: as §1

[19] = tested on: HCC-827
How it was run: as §1

[20] = tested on: HCC-366
How it was run: as §1

[21] = tested on: NCI-H2405
How it was run: as §1

[22] = tested on: LXF-289
How it was run: as §1

[23] = tested on: SK-LU-1
How it was run: as §1

Clc1ccc(Nc2nnc(Cc3ccncc3)c3ccccc23)cc1 [Vatalanib] + COc1cc2c(Oc3ccc(NC(=O)C4(C(=O)Nc5ccc(F)cc5)CC4)cc3F)ccnc2cc1OCCCN1CCOCC1 [Foretinib] (partner 0.25 µM)
relative viability ([1]; first compound 0.04 µM): 0.997 | relative viability ([1]; first compound 0.1265 µM): 0.978 | relative viability ([1]; first compound 0.4 µM): 0.939 | relative viability ([1]; first compound 1.265 µM): 0.897 | relative viability ([1]; first compound 4 µM): 0.954 | relative viability ([2]; first compound 0.04 µM): 0.531 | relative viability ([2]; first compound 0.1265 µM): 0.551 | relative viability ([2]; first compound 0.4 µM): 0.535 | relative viability ([2]; first compound 1.265 µM): 0.503 | relative viability ([2]; first compound 4 µM): 0.47 | relative viability ([3]; first compound 0.04 µM): 1.14 | relative viability ([3]; first compound 0.1265 µM): 1.19 | relative viability ([3]; first compound 0.4 µM): 1.29 | relative viability ([3]; first compound 1.265 µM): 1.6 | relative viability ([3]; first compound 4 µM): 1.5 | relative viability ([4]; first compound 0.04 µM): 1.15 | relative viability ([4]; first compound 0.1265 µM): 1.23 | relative viability ([4]; first compound 0.4 µM): 1.25 | relative viability ([4]; first compound 1.265 µM): 1.1 | relative viability ([4]; first compound 4 µM): 1.12 | relative viability ([5]; first compound 0.1265 µM): 0.761 | relative viability ([5]; first compound 0.4 µM): 0.942 | relative viability ([5]; first compound 1.265 µM): 0.922 | relative viability ([5]; first compound 4 µM): 0.918 | relative viability ([6]; first compound 0.04 µM): 0.889 | relative viability ([6]; first compound 0.1265 µM): 0.927 | relative viability ([6]; first compound 0.4 µM): 0.925 | relative viability ([6]; first compound 1.265 µM): 0.89 | relative viability ([6]; first compound 4 µM): 0.766 | relative viability ([7]; first compound 0.04 µM): 0.997 | relative viability ([7]; first compound 0.1265 µM): 0.857 | relative viability ([7]; first compound 0.4 µM): 1.05 | relative viability ([7]; first compound 1.265 µM): 0.929 | relative viability ([7]; first compound 4 µM): 0.9 | relative viability ([8]; first compound 0.04 µM): 1 | relative viability ([8]; first compound 0.1265 µM): 0.916 | relative viability ([8]; first compound 0.4 µM): 0.976 | relative viability ([8]; first compound 1.265 µM): 0.881 | relative viability ([8]; first compound 4 µM): 0.893 | relative viability ([9]; first compound 0.04 µM): 0.968 | relative viability ([9]; first compound 0.1265 µM): 0.885 | relative viability ([9]; first compound 0.4 µM): 0.953 | relative viability ([9]; first compound 1.265 µM): 0.866 | relative viability ([9]; first compound 4 µM): 0.832 | relative viability ([10]; first compound 0.04 µM): 1.07 | relative viability ([10]; first compound 0.1265 µM): 0.879 | relative viability ([10]; first compound 0.4 µM): 0.854 | relative viability ([10]; first compound 1.265 µM): 0.996 | relative viability ([10]; first compound 4 µM): 0.818 | relative viability ([11]; first compound 0.04 µM): 1 | relative viability ([11]; first compound 0.1265 µM): 1.02 | relative viability ([11]; first compound 0.4 µM): 0.997 | relative viability ([11]; first compound 1.265 µM): 0.962 | relative viability ([11]; first compound 4 µM): 0.925 | relative viability ([12]; first compound 0.04 µM): 0.645 | relative viability ([12]; first compound 0.1265 µM): 0.711 | relative viability ([12]; first compound 0.4 µM): 0.763 | relative viability ([12]; first compound 1.265 µM): 0.669 | relative viability ([12]; first compound 4 µM): 0.841 | relative viability ([13]; first compound 0.04 µM): 0.928 | relative viability ([13]; first compound 0.1265 µM): 0.945 | relative viability ([13]; first compound 0.4 µM): 0.931 | relative viability ([13]; first compound 1.265 µM): 0.796 | relative viability ([13]; first compound 4 µM): 1.02 | relative viability ([14]; first compound 0.04 µM): 0.887 | relative viability ([14]; first compound 0.1265 µM): 0.956 | relative viability ([14]; first compound 1.265 µM): 0.937 | relative viability ([14]; first compound 4 µM): 0.91 | relative viability ([15]; first compound 0.04 µM): 0.92 | relative viability ([15]; first compound 0.1265 µM): 0.874 | relative viability ([15]; first compound 0.4 µM): 0.995 | relative viability ([15]; first compound 1.265 µM): 0.875 | relative viability ([15]; first compound 4 µM): 0.901 | relative viability ([16]; first compound 0.04 µM): 0.809 | relative viability ([16]; first compound 0.1265 µM): 0.842 | relative viability ([16]; first compound 0.4 µM): 0.917 | relative viability ([16]; first compound 1.265 µM): 0.75 | relative viability ([16]; first compound 4 µM): 0.848 | relative viability ([17]; first compound 0.04 µM): 0.826 | relative viability ([17]; first compound 0.1265 µM): 1.01 | relative viability ([17]; first compound 0.4 µM): 1.09 | relative viability ([17]; first compound 1.265 µM): 0.919 | relative viability ([17]; first compound 4 µM): 1.02 | relative viability ([18]; first compound 0.04 µM): 0.829 | relative viability ([18]; first compound 0.1265 µM): 0.705 | relative viability ([18]; first compound 0.4 µM): 0.752 | relative viability ([18]; first compound 1.265 µM): 0.739 | relative viability ([18]; first compound 4 µM): 0.756 | relative viability ([19]; first compound 0.04 µM): 1.07 | relative viability ([19]; first compound 0.1265 µM): 1.09 | relative viability ([19]; first compound 0.4 µM): 0.942 | relative viability ([19]; first compound 1.265 µM): 0.927 | relative viability ([19]; first compound 4 µM): 1.03 | relative viability ([20]; first compound 0.04 µM): 0.85 | relative viability ([20]; first compound 0.1265 µM): 0.8 | relative viability ([20]; first compound 0.4 µM): 0.895 | relative viability ([20]; first compound 1.265 µM): 0.885 | relative viability ([20]; first compound 4 µM): 0.949 | relative viability ([21]; first compound 0.04 µM): 1.04 | relative viability ([21]; first compound 0.1265 µM): 1.06 | relative viability ([21]; first compound 1.265 µM): 1.02 | relative viability ([21]; first compound 4 µM): 0.965 | relative viability ([22]; first compound 0.04 µM): 0.97 | relative viability ([22]; first compound 0.1265 µM): 0.966 | relative viability ([22]; first compound 0.4 µM): 0.98 | relative viability ([22]; first compound 1.265 µM): 0.945 | relative viability ([22]; first compound 4 µM): 0.931 | relative viability ([23]; first compound 0.04 µM): 0.807 | relative viability ([23]; first compound 0.1265 µM): 0.741 | relative viability ([23]; first compound 0.4 µM): 0.979 | relative viability ([23]; first compound 1.265 µM): 0.877 | relative viability ([23]; first compound 4 µM): 0.809
